US4557871A, “Novel styrene derivatives of the general formula” (Taisho Pharmaceutical Co., Ltd., priority 1983, dated 1985)
Like-named read-outs stand apart in the source and are kept apart here.

Key:
edema in left hind paw [1] = assay: Carrageenin-induced hind paw edema in rats, test compound orally 1 hour before (Winter's method), anti-inflammatory activity; format: in vivo, Male Wistar rats; details: paw volume 3 hours after carrageenin; for inhibition at 6 mg/kg: Rattus norvegicus, po
Description: Anti-inflammatory activity was evaluated by the Winter's method [Journal of Pharmacology and Experimental Therapeutics, volume 141, page 369(1963)]. Male Wistar rats (group of 6 animals) were administered orally the test compounds (dose: 6 mg/kg) one hour before inducing the edema in left hind paw with 0.1 ml of a 1% carrageenin-saline suspension. Volumes of the hind paws were determined with a volume meter 3 hours after the injection of carrageenin. Indomethacin (Control 1) and 4-vinylphenylacetic acid (Control 2) were used as controls.

edema in left hind paw [2] = assay: Duration of inhibition of carrageenin-induced hind paw edema, test compound orally 1, 24 or 48 hours before inducing the edema; format: in vivo, Male Wistar rats; details: Rattus norvegicus; for inhibition at 3 mg/kg: po; for inhibition at 30 mg/kg: dose 30 mg/kg oral; for inhibition at 1.5 mg/kg: dose 1.5 mg/kg oral; for inhibition at 6 mg/kg: dose 6 mg/kg oral
Description: Anti-inflammatory activity was evaluated by the Winter's method [Journal of Pharmacology and Experimental Therapeutics, volume 141, page 369(1963)]. […] Volumes of the hind paws were determined with a volume meter 3 hours after the injection of carrageenin. Indomethacin (Control 1) and 4-vinylphenylacetic acid (Control 2) were used as controls.
Following a procedure similar to that of Test example 1, the test compounds were administered orally to the rats 1, 24 or 48 hours before inducing the edema, and there was obtained a result shown in Table 2.

[3] = 6 mg/kg oral, one hour before carrageenin
[4] = read-out: Inhibition of edema, 6 mg/kg oral, one hour before carrageenin
[5] = 6 mg/kg oral, one hour before carrageenin, read-out: Inhibition of edema
[6] = 1 hr before inducing edema, read-out: Inhibition of edema, 1 hr
[7] = 24 hrs before inducing edema, read-out: Inhibition of edema, 24 hrs
[8] = 48 hrs before inducing edema, read-out: Inhibition of edema, 48 hrs

| SMILES | inhibition at 6 mg/kg (edema in left hind paw [1]; [5]) | other results |
| --- | --- | --- |
| COc1ccc2c(c1)c(CC(=O)O)c(C)n2C(=O)c1ccc(Cl)cc1 [Control 1, Indomethacin] | – | Inhibition of edema (edema in left hind paw [1]; [3]): 59.3%; inhibition at 6 mg/kg (edema in left hind paw [1]; [4]): 68.2%; inhibition at 3 mg/kg (edema in left hind paw [2]; read-out: Inhibition of edema, 1 hr): 30.4%; inhibition at 3 mg/kg (edema in left hind paw [2]; read-out: Inhibition of edema, 24 hrs): 8.1%; inhibition at 3 mg/kg (edema in left hind paw [2]; read-out: Inhibition of edema, 48 hrs): 0.8% |
| C=Cc1ccc(CC(=O)O)cc1 [Control 2, 4-vinylphenylacetic acid] | 15.7% | inhibition at 30 mg/kg (edema in left hind paw [2]; [6]): 40.2%; inhibition at 30 mg/kg (edema in left hind paw [2]; [7]): 1.3%; inhibition at 30 mg/kg (edema in left hind paw [2]; [8]): -3.5% |
| CN1C(C(=O)Nc2ccccn2)=C(O)c2ccccc2S1(=O)=O [Control 3, piroxicam] | – | inhibition at 1.5 mg/kg (edema in left hind paw [2]; [6]): 48.6%; inhibition at 1.5 mg/kg (edema in left hind paw [2]; [7]): 13.3%; inhibition at 1.5 mg/kg (edema in left hind paw [2]; [8]): 2.1% |
| CC(C)=Cc1ccc(C(C)C(=O)O)cc1 (centres unmarked) [Control 4, 2-[4-(2,2-dimethylvinyl)phenyl]propionic acid] | – | inhibition at 6 mg/kg (edema in left hind paw [2]; [6]): 59.3%; inhibition at 6 mg/kg (edema in left hind paw [2]; [7]): -8.5%; inhibition at 6 mg/kg (edema in left hind paw [2]; [8]): 3.7% |
| CC(C(=O)O)c1ccc(C=C(Cl)Cl)cc1 (centres unmarked) [ST-1, 2-[4-(2,2-dichlorovinyl)phenyl]propionic acid] | – | Inhibition of edema (edema in left hind paw [1]; [3]): 66.1%; inhibition at 1.5 mg/kg (edema in left hind paw [2]; [6]): 42.6%; inhibition at 1.5 mg/kg (edema in left hind paw [2]; [7]): 31.1%; inhibition at 1.5 mg/kg (edema in left hind paw [2]; [8]): 25.3% |
| O=C(O)Cc1ccc(C=C(Cl)Cl)cc1 [ST-2, 4-(2,2-Dichlorovinyl)phenylacetic acid] | 63.9% | – |
| O=C(O)Cc1cccc(C=C(Cl)Cl)c1 [ST-3, 3-(2,2-Dichlorovinyl)phenylacetic acid] | 31.9% | – |
| CC(C(=O)O)c1cccc(C=C(Cl)Cl)c1 (centres unmarked) [ST-4, 2-[3-(2,2-Dichlorovinyl)phenyl]propionic acid] | 32% | – |
| CCOC(=O)C(C)c1ccc(C=C(Cl)Cl)cc1 (centres unmarked) [ST-5, ethyl 2-[4-(2,2-dichlorovinyl)phenyl]propionate] | 46.5% | – |
| CC(C(=O)O)c1ccc(C=C(F)F)cc1 (centres unmarked) [ST-7, 2-[4-(2,2-difluorovinyl)phenyl]propionic acid] | 48.4% | – |
| CC(C(=O)O)c1ccc(C=C(Cl)Cl)c(F)c1 (centres unmarked) [ST-8, 2-[4-(2,2-dichlorovinyl)-3-fluorophenyl]propionic acid] | 64.8% | – |
| CC(C(=O)O)c1ccc(C=C(Cl)Cl)c(Cl)c1 (centres unmarked) [ST-9, 2-[3-Chloro-4-(2,2-dichlorovinyl)phenyl]propionic acid] | 58% | – |
| CC(CO)c1ccc(C=C(Cl)Cl)cc1 (centres unmarked) [ST-10, 2-[4-(2,2-dichlorovinyl)phenyl]propanol] | 62.4% | – |
| CC(C(N)=O)c1ccc(C=C(Cl)Cl)cc1 (centres unmarked) [ST-11, 2-[4-(2,2-dichlorovinyl)phenyl]propionamide] | 26.5% | – |
| Cc1ccc(NC(=O)C(C)c2ccc(C=C(Cl)Cl)cc2)cc1 (centres unmarked) [ST-14, N-(4-Methylphenyl)-2-[4-(2,2-dichlorovinyl)phenyl]propionamide] | 33.6% | – |
| CC(C(=O)Nc1ccc(Cl)cc1)c1ccc(C=C(Cl)Cl)cc1 (centres unmarked) [ST-16, N-(4-Chlorophenyl)-2-[4-(2,2-dichlorovinyl)phenyl]propionamide] | 43.1% | – |
| CC(C(=O)Nc1ccc(F)cc1)c1ccc(C=C(Cl)Cl)cc1 (centres unmarked) [ST-17, N-(4-Fluorophenyl)-2-[4-(2,2-dichlorovinyl)phenyl]propionamide] | 40% | – |
| CC(C(=O)Nc1ccc(C(=O)O)cc1)c1ccc(C=C(Cl)Cl)cc1 (centres unmarked) [ST-20, 4-{2-[4-(2,2-Dichlorovinyl)phenyl]propionylamino}benzoic acid] | 47% | – |
| CC(C(=O)Nc1ccccn1)c1ccc(C=C(Cl)Cl)cc1 (centres unmarked) [ST-22, N-(2-Pyridyl)-2-[4-(2,2-dichlorovinyl)phenyl]propionamide] | 35.5% | – |
| CCOC(=O)CNC(=O)C(C)c1ccc(C=C(Cl)Cl)cc1 (centres unmarked) [ST-23, N-{2-[4-(2,2-Dichlorovinyl)phenyl]propionyl}glycine ethyl ester] | 35.5% | – |
| CC(C(=O)NCC(=O)O)c1ccc(C=C(Cl)Cl)cc1 (centres unmarked) [ST-24, N-{2-[4-(2,2-Dichlorovinyl)phenyl]propionyl}glycine] | 30% | – |
| CCNC(=O)C(C)c1ccc(C=C(Cl)Cl)cc1 (centres unmarked) [ST-25, N-Ethyl-2-[4-(2,2-dichlorovinyl)phenyl]propionamide] | 37.1% | – |
| CC(C(=O)NO)c1ccc(C=C(Cl)Cl)cc1 (centres unmarked) [ST-34, 2-[4-(2,2-dichlorovinyl)phenyl]propionylhydroxamic acid] | 32.5% | – |

| SMILES | inhibition at 6 mg/kg (edema in left hind paw [1]; [5]) | other results |
| --- | --- | --- |
| CC(C(=O)O)c1ccc(C=C(Cl)Cl)cc1 (centres unmarked) [ST-35, sodium 2-[4-(2,2-dichlorovinyl)phenyl]propionate] | – | inhibition at 6 mg/kg (edema in left hind paw [1]; [4]): 46% |
| CC(C(=O)O)c1ccc(C=C(Cl)Cl)cc1 (centres unmarked) [ST-36, calcium 2-[4-(2,2-dichlorovinyl)phenyl]propionate] | – | Inhibition of edema (edema in left hind paw [1]; [3]): 43.0% |
| CC(C(=O)O)c1ccc(C=C(Cl)Cl)cc1 (centres unmarked) [ST-37, Aluminum 2-[4-(2,2-dichlorovinyl)phenyl]propionate] | – | Inhibition of edema (edema in left hind paw [1]; [3]): 63.1% |
| CC(C(=O)O)c1ccc(C=C(Cl)Cl)cc1 (centres unmarked) [ST-38, morpholinium 2-[4-(2,2-dichlorovinyl)phenyl]propionate] | – | Inhibition of edema (edema in left hind paw [1]; [3]): 35.6% |
| CC(C(=O)O)c1ccc(C=C(Cl)Cl)cc1 (centres unmarked) [ST-39, 2-Pyridylammonium 2-[4-(2,2-dichlorovinyl)phenyl]propionate] | – | Inhibition of edema (edema in left hind paw [1]; [3]): 51.4% |
| CC(C)=CCOC(=O)C(C)c1ccc(C=C(Cl)Cl)cc1 (centres unmarked) [ST-41, prenyl 2-[4-(2,2-dichlorovinyl)phenyl]propionate] | 48.8% | – |
| CC(C)CCOC(=O)C(C)c1ccc(C=C(Cl)Cl)cc1 (centres unmarked) [ST-42, Isopentyl 2-[4-(2,2-dichlorovinyl)phenyl]propionate] | 60.4% | – |
| COCOC(=O)C(C)c1ccc(C=C(Cl)Cl)cc1 (centres unmarked) [ST-43, Methoxymethyl 2-[4-(2,2-dichlorovinyl)phenyl]propionate] | 37.1% | – |
| CC(C(=O)OCc1ccccn1)c1ccc(C=C(Cl)Cl)cc1 (centres unmarked) [ST-44, 2-Pyridylmethyl 2-[4-(2,2-dichlorovinyl)phenyl]propionate] | 59.8% | – |
| CC(=O)OC(C)OC(=O)C(C)c1ccc(C=C(Cl)Cl)cc1 (centres unmarked) [ST-45, 1-(Acetoxy)ethyl 2-[4-(2,2-dichlorovinyl)phenyl]propionate] | 44.8% | – |
| CCC(=O)OCOC(=O)C(C)c1ccc(C=C(Cl)Cl)cc1 (centres unmarked) [ST-46, Propionyloxymethyl 2-[4-(2,2-dichlorovinyl)phenyl]propionate] | 32.2% | – |
| CCC(=O)OC(C)OC(=O)C(C)c1ccc(C=C(Cl)Cl)cc1 (centres unmarked) [ST-47, 1-(Propionyloxy)ethyl 2-[4-(2,2-dichlorovinyl)phenyl]propionate] | 49.9% | – |
| CCCCCCCCCCCCCCCC(=O)OC(C)OC(=O)C(C)c1ccc(C=C(Cl)Cl)cc1 (centres unmarked) [ST-48, 1-(Palmitoyloxy)ethyl 2-[4-(2,2-dichlorovinyl)phenyl]propionate] | 32.7% | – |
| CC(C(=O)OC1OC(=O)c2ccccc21)c1ccc(C=C(Cl)Cl)cc1 (centres unmarked) [ST-49, 2-Phthalidyl 2-[4-(2,2-dichlorovinyl)phenyl]propionate] | 53.3% | – |
| CC(C)=CCOC(=O)C(C)c1ccc(C=C(Cl)Cl)c(F)c1 (centres unmarked) [ST-50, Prenyl 2-[4-(2,2-dichlorovinyl)-3-fluorophenyl]propionate] | 61.4% | – |
| CCOC(=O)C(C)c1ccc(C=C(Cl)Cl)c(F)c1 (centres unmarked) [ST-55, ethyl 2-[4-(2,2-dichlorovinyl)-3-fluorophenyl]propionate] | 38.2% | – |
| CCOC(=O)C(C)c1ccc(C=C(Cl)Cl)c(Cl)c1 (centres unmarked) [ST-56, Ethyl 2-[3-chloro-4-(2,2-dichlorovinyl)phenyl]propionate] | 39.4% | – |
| CC(C)=CCC/C(C)=C/COC(=O)C(C)c1ccc(C=C(Cl)Cl)cc1 (centres unmarked) [ST-58, geranyl 2-[4-(2,2-dichlorovinyl)phenyl]propionate] | 39% | – |
| CC(C(=O)OCCO)c1ccc(C=C(Cl)Cl)cc1 (centres unmarked) [ST-59, 2-Hydroxyethyl 2-[4-(2,2-dichlorovinyl)phenyl]propionate] | 57.3% | – |
| CC(C)=CCCC(C)=CCCC(C)=CCOC(=O)C(C)c1ccc(C=C(Cl)Cl)cc1 (centres unmarked) [ST-60, Farnesyl 2-[4-(2,2-dichlorovinyl)phenyl]propionate] | 50.8% | – |
| CC(C(=O)OC1CCCCC1)c1ccc(C=C(Cl)Cl)cc1 (centres unmarked) [ST-61, Cyclohexyl 2-[4-(2,2-dichlorovinyl)phenyl]propionate] | 43.7% | – |
| CC(C)=CCC/C(C)=C/COC(=O)C(C)c1ccc(C=C(Cl)Cl)c(Cl)c1 (centres unmarked) [ST-62, Geranyl 2-[3-chloro-4-(2,2-dichlorovinyl)phenyl]propionate] | 43.2% | – |
